Assay results taken from patent US9365522B2, “Pyrazole amide derivative” (AMGEN INC., priority 2015, dated 2016).

Molecular target: T1, human RORγ-LBD (Homo sapiens, UniProt P51449)
T1 construct: made in house; host or cells: E. coli (BL-21)
T1 sequence (P51449 262-518): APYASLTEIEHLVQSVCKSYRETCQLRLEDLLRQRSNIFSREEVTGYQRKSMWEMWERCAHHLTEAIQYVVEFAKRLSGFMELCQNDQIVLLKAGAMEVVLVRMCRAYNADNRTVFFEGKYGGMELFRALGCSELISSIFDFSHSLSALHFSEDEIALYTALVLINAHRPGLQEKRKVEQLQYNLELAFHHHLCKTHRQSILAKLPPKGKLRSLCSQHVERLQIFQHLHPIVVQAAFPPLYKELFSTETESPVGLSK
Experiment: ROR gamma coactivator peptide recruitment Alphascreen assay (RORγ-LBD binding to GRIP1 coactivator peptide)
Assay type: biochemical
Conditions: 5 nM human RORγ-LBD, 30 nM 7-β-hydroxycholesterol, 50 nM biotinylated GRIP1 coactivator peptide, overnight incubation at room temperature; read-out: result (pIC50, RORγ coactivator peptide recruitment Alphascreen assay) (converted)
Summary of the method: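 Alphascreen proximity read-out after overnight room-temperature incubation, yielding pIC50 from 1-in-2 compound series (2.5% DMSO final). Mixture: 50 nM biotin-GRIP1 peptide, 30 nM 7-β-hydroxycholesterol agonist, 5 nM recombinant 6×His:Flag human RORγ-LBD (aa 262-518), 50 mM HEPES pH 7.4.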

| SMILES | IC50 [nM] |
| --- | --- |
| CC1(C)C[C@H]1CN(CC(=O)c1c(Cl)cncc1Cl)C(=O)c1cnn([C@H]2CC[C@](C)(C(=O)O)CC2)c1C(F)(F)F [Example 743, trans-4-(4-((2-(3,5-dichloro-4-pyridinyl)-2-oxoethyl)(((1S)-2,2-dimethylcyclopropyl)methyl)carbamoyl)-5-(trifluoromethyl)-1H-pyrazol-1-yl)-1-methylcyclohexanecarboxylic acid] | 2.24 |
| C[C@@H]1C[C@@H](n2ncc(C(=O)N(CC(=O)c3c(Cl)cncc3Cl)CC3(C)CCC3)c2C(F)(F)F)CC[C@@H]1C(=O)O [Example 782, (1S,2R,4S)-4-(4-((2-(3,5-dichloro-4-pyridinyl)-2-oxoethyl)((1-methylcyclobutyl)methyl)carbamoyl)-5-(trifluoromethyl)-1H-pyrazol-1-yl)-2-methylcyclohexanecarboxylic acid] | 3.98 |
| CC(C)(C)CN(CC(=O)c1c(Cl)cncc1Cl)C(=O)c1cnn([C@H]2CC[C@@H](CC(=O)O)CC2)c1C(F)(F)F [Example 720, (cis-4-(4-((2-(3,5-dichloro-4-pyridinyl)-2-oxoethyl)(2,2-dimethylpropyl)carbamoyl)-5-(trifluoromethyl)-1H-pyrazol-1-yl)cyclohexyl)acetic acid] | 74.1 |
| CC1(C)C[C@H](CN(CC(=O)c2c(Cl)cncc2Cl)C(=O)c2cnn([C@H]3CC[C@](C)(C(=O)O)CC3)c2C(F)(F)F)O1 [Example 685, trans-4-(4-((2-(3,5-dichloro-4-pyridinyl)-2-oxoethyl)(((2R)-4,4-dimethyl-2-oxetanyl)methyl)carbamoyl)-5-(trifluoromethyl)-1H-pyrazol-1-yl)-1-methylcyclohexanecarboxylic acid] | 97.7 |
| CC(C)(C)[C@H]1C[C@@H](N(CC(=O)c2c(Cl)cncc2Cl)C(=O)c2cnn([C@H]3CC[C@](C)(C(=O)O)CC3)c2C(F)(F)F)C1 [Example 699, trans-4-(4-((2-(3,5-dichloro-4-pyridinyl)-2-oxoethyl)(cis-3-(2-methyl-2-propanyl)cyclobutyl)carbamoyl)-5-(trifluoromethyl)-1H-pyrazol-1-yl)-1-methylcyclohexanecarboxylic acid] | 39.8 |
| C[C@@H]1C[C@H](n2ncc(C(=O)N(CC(=O)c3c(Cl)cncc3Cl)CC(C)(C)C(F)(F)F)c2C(F)(F)F)CC[C@H]1C(=O)O [Example 878, (1R,2R,4R)-4-(4-((2-(3,5-dichloro-4-pyridinyl)-2-oxoethyl)(3,3,3-trifluoro-2,2-dimethylpropyl)carbamoyl)-5-(trifluoromethyl)-1H-pyrazol-1-yl)-2-methylcyclohexanecarboxylic acid] | 3.89 |
| C[C@]1(C(=O)O)CC[C@H](n2ncc(C(=O)N(CC(=O)c3c(Cl)cccc3Cl)CC3CCC4(CC3)CC4)c2C(F)(F)F)CC1 [Example 569, trans-4-(4-((2-(2,6-dichlorophenyl)-2-oxoethyl)(spiro[25]oct-6-ylmethyl)carbamoyl)-5-(trifluoromethyl)-1H-pyrazol-1-yl)-1-methylcyclohexanecarboxylic acid] | 6760 |
| Cc1cc(Cl)c(C(=O)CN(C(=O)c2cnn([C@H]3CC[C@H](CC(=O)O)CC3)c2C(F)(F)F)[C@H]2C[C@@H]3[C@H](C2)C3(C)C)c(Cl)c1 [Example 750, (trans-4-(4-((2-(2,6-dichloro-4-methylphenyl)-2-oxoethyl)((1R,3r,5S)-6,6-dimethylbicyclo[3.1.0]hex-3-yl)carbamoyl)-5-(trifluoromethyl)-1H-pyrazol-1-yl)cyclohexyl)acetic acid] | 1.58 |
| C[C@H]1C[C@H](n2ncc(C(=O)N(CC(=O)c3c(Cl)cccc3Cl)CC3CC(C)(C)C3)c2C(F)(F)F)CC[C@H]1C(=O)O [Example 662, (1R,2S,4R)-4-(4-((2-(2,6-dichlorophenyl)-2-oxoethyl)((3,3-dimethylcyclobutyl)methyl)carbamoyl)-5-(trifluoromethyl)-1H-pyrazol-1-yl)-2-methylcyclohexanecarboxylic acid] | 7.08 |
| CC1(CN(CC(=O)c2c(Cl)cccc2Cl)C(=O)c2cnn([C@H]3CC[C@](C)(C(=O)O)CC3)c2C(F)(F)F)CCC1 [Example 760, trans-4-(4-((2-(2,6-dichlorophenyl)-2-oxoethyl)((1-methylcyclobutyl)methyl)carbamoyl)-5-(trifluoromethyl)-1H-pyrazol-1-yl)-1-methylcyclohexanecarboxylic acid] | 2.4 |
| CC1(C)CC[C@H](CN(CC(=O)c2c(Cl)cncc2Cl)C(=O)c2cnn([C@H]3CC[C@](C)(C(=O)O)CC3)c2C(F)(F)F)O1 [Example 674, trans-4-(4-((2-(3,5-dichloro-4-pyridinyl)-2-oxoethyl)(((2S)-5,5-dimethyltetrahydro-2-furanyl)methyl)carbamoyl)-5-(trifluoromethyl)-1H-pyrazol-1-yl)-1-methylcyclohexanecarboxylic acid] | 17.8 |
| C[C@]1(CC(=O)O)CC[C@H](n2ncc(C(=O)N(CC(=O)c3c(Cl)cncc3Cl)Cc3cc(F)cc(F)c3)c2C(F)(F)F)CC1 [Example 789, (trans-4-(4-((2-(3,5-dichloro-4-pyridinyl)-2-oxoethyl)(3,5-difluorobenzyl)carbamoyl)-5-(trifluoromethyl)-1H-pyrazol-1-yl)-1-methylcyclohexyl)acetic acid] | 2.09 |
| CC(C)(C)CN(CC(=O)c1c(Cl)cncc1Cl)C(=O)c1cnn([C@H]2CC[C@H](CC(=O)O)CC2)c1C(F)(F)F [Example 719, (trans-4-(4-((2-(3,5-dichloro-4-pyridinyl)-2-oxoethyl)(2,2-dimethylpropyl)carbamoyl)-5-(trifluoromethyl)-1H-pyrazol-1-yl)cyclohexyl)acetic acid] | 6.03 |
| C[C@]1(C(=O)O)CC[C@H](n2ncc(C(=O)N(CC(=O)c3c(Cl)cccc3Cl)CC3(F)CC3)c2C(F)(F)F)CC1 [Example 611, trans-4-(4-((2-(2,6-dichlorophenyl)-2-oxoethyl)((1-fluorocyclopropyl)methyl)carbamoyl)-5-(trifluoromethyl)-1H-pyrazol-1-yl)-1-methylcyclohexanecarboxylic acid] | 6.03 |
| Cc1ncc(Cl)c(C(=O)CN(C(=O)c2cnn([C@H]3CC[C@](C)(C(=O)O)CC3)c2C(F)(F)F)[C@H]2C[C@@H]3[C@H](C2)C3(C)C)c1Cl [Example 758, trans-4-(4-((2-(3,5-dichloro-2-methyl-3-pyridinyl)-2-oxoethyl)((1R,3r,5S)-6,6-dimethylbicyclo[3.1.0]hex-3-yl)carbamoyl)-5-(trifluoromethyl)-1H-pyrazol-1-yl)-1-methylcyclohexanecarboxylic acid] | 3.55 |

Results, then the molecule that gave them:

| IC50 [nM] | SMILES |
| --- | --- |
| 91.2 | CC1(C)C[C@@H](CN(CC(=O)c2c(Cl)cncc2Cl)C(=O)c2cnn([C@H]3CC[C@](C)(C(=O)O)CC3)c2C(F)(F)F)O1 [Example 686, trans-4-(4-((2-(3,5-dichloro-4-pyridinyl)-2-oxoethyl)(((2S)-4,4-dimethyl-2-oxetanyl)methyl)carbamoyl)-5-(trifluoromethyl)-1H-pyrazol-1-yl)-1-methylcyclohexanecarboxylic acid] |
| 3.98 | Cc1cc(Cl)c(C(=O)CN(CC2(F)CC2)C(=O)c2cnn([C@H]3CC[C@](C)(C(=O)O)CC3)c2C(F)(F)F)c(Cl)c1 [Example 630, trans-4-(4-((2-(2,6-dichloro-4-methylphenyl)-2-oxoethyl)((1-fluorocyclopropyl)methyl)carbamoyl)-5-(trifluoromethyl)-1H-pyrazol-1-yl)-1-methylcyclohexanecarboxylic acid] |
| 100 | C[C@@H]1C[C@@H](n2ncc(C(=O)N(CC(=O)c3c(Cl)cncc3Cl)C[C@H]3CCCO3)c2C(F)(F)F)CC[C@@H]1C(=O)O [Example 820, (1S,2R,4S)-4-(4-((2-(3,5-dichloro-4-pyridinyl)-2-oxoethyl)((2R)-tetrahydro-2-furanylmethyl)carbamoyl)-5-(trifluoromethyl)-1H-pyrazol-1-yl)-2-methylcyclohexanecarboxylic acid] |
| 8.32 | O=C(CN(Cc1ccc(C(F)(F)F)cc1)C(=O)c1cnn([C@H]2CC[C@H](C(=O)O)CC2)c1C(F)(F)F)c1c(Cl)cccc1Cl [Example 527, trans-4-(4-((2-(2,6-dichlorophenyl)-2-oxoethyl)(4-(trifluoromethyl)benzyl)carbamoyl)-5-(trifluoromethyl)-1H-pyrazol-1-yl)cyclohexanecarboxylic acid] |
| 0.933 | Cc1cc(Cl)c(C(=O)CN(CC2(C)CCC2)C(=O)c2cnn([C@H]3CC[C@](C)(C(=O)O)CC3)c2C(F)(F)F)c(Cl)c1 [Example 731, trans-4-(4-((2-(2,6-dichloro-4-methylphenyl)-2-oxoethyl)((1-methylcyclobutyl)methyl)carbamoyl)-5-(trifluoromethyl)-1H-pyrazol-1-yl)-1-methylcyclohexanecarboxylic acid] |
| 32.4 | CC(C)[C@@H]1C[C@H](Cc2c(Cl)cncc2Cl)N(C(=O)c2cnn([C@H]3CC[C@](C)(C(=O)O)CC3)c2C(F)(F)F)C1 [Example 746, trans-4-(4-(((2R,4S)-2-((3,5-dichloro-4-pyridinyl)methyl)-4-(2-propanyl)-1-pyrrolidinyl)carbonyl)-5-(trifluoromethyl)-1H-pyrazol-1-yl)-1-methylcyclohexanecarboxylic acid] |
| 5.89 | C[C@H]1C[C@@](C)(C(=O)O)CCC1n1ncc(C(=O)N(CC(=O)c2c(Cl)cncc2Cl)CC(C)(C)C)c1C(F)(F)F (single isomer, unassigned) [Example 843] |
